Data: patent publication US20220378763A1, “COMPOUND FOR TREATMENT OF ACUTE INFLAMMATION IN THE MYOCARDIUM” (CALPROTECT AB, priority 2019, published 2022)

Assays:
[1] = tested on: C57BL/6 mice with MI induced by permanent coronary artery ligation; assay: Flow cytometry of myeloid cells and BrdU incorporation on day 2 post-MI; type: in vivo, mouse
Protocol: Immune cells from blood, spleen, heart and bone-marrow were collected at 2 or 7 days post-MI, and analysed by flow-cytometry. Mice were anesthetized by intraperitoneal injection of a mixture of xylazine (10 mg/kg) and ketamine (100 mg/kg). After 10 minutes, blood was collected by cardiac punction. Thereafter, the spleen was removed and the heart was perfused with 5 ml ice-cold PBS. Perfused hearts were excised and collected into tubes with PBS and kept on ice. Femurs and tibias from each mouse were used to obtain whole bone marrow for analysis. Blood was stained with fluorochrome-labelled antibodies against mouse monocyte and neutrophil markers diluted in MACS buffer (PBS, 10% FCS and 0.5% BSA), followed by treatment with erythrocyte lysis buffer, washing and analysis. Spleens were mashed trough a cell strainer in ice-cold PBS. Hearts were cut into small pieces and placed into tubes containing 2.5 ml digestion cocktail (Collagenase I, 450 U/ml; Collagenase XI, 125 U/ml; DNAase I, 60 U/ml; Hyaluronidase type 1-5, 60 U/ml diluted in PBS containing Ca and Mg) incubated for 1 h at 37° C. with shaking at 220 rpm. Bone marrow was flushed from femur and tibia using ice-cold PBS. Cell suspensions from spleen, heart and bone marrow were filtered through a 40 um cell strainer (BD), treated with erythrocyte lysis buffer, washed and stained. For intracellular staining, cells were fixed, permeabilized and stained. Cell populations were analyzed by flow cytometry in a Gallios Flow Cytometer (Backman Coulter), and the results were analyzed using FlowJo (FlowJo®, LLC; Tree Star). The following anti-mouse antibodies were used for the flow cytometric analysis: anti-CD45 (30-F11), anti-CD11b (M1/70), anti-Ly6C (HK1.4), anti-CD115 (AFS98), anti-Ly6G (1A8), anti-F4/80 (BM8), anti-CCR2 (475301), anti-Ter119 (TER119), anti-Gr1 (RB6-8C5), anti-CD45R/B220 (RA3-6B2), anti-CD3ξ (145-2C11), anti-NK1.1 (PK136), anti-Ly6A/E (Sca-1) (E13-1617), anti-CD117 (c-kit) (2B8), anti-CD48 (HM48.1), anti-CD150/SLAM (TC15-12F12.2), anti-CD16/32 (93), anti-CD34 (MEC14.7) (all from BioLegend, San Diego, Calif., USA); anti-MerTK (DSSMMER) and anti-Nur77 (12.14) (eBioscience).
Mice were injected intraperitoneally with 1 mg BrdU 24 hours prior to organ harvest. Intracellular BrdU staining was performed in hematopoietic stem cells collected from the bone marrow using BrdU flow kits (BD Pharmigen™), according to the manufacturer instructions. BrdU expression was analysed by flow cytometry.
Neutrophilia and monocytosis, elevated circulating numbers of neutrophils and monocytes, have been associated with an adverse prognosis in MI patients. We studied the effects of S100A9 blockade on myeloid cell populations in blood, heart, and myeloid organs on day 2 post-MI, at the peak of the acute inflammatory period. The gating strategy is described in FIG. 8.

[2] = tested on: BALB/c mice with induced myocarditis; assay: Myocarditis induced by cardiac α-myosin peptide: flow cytometry of heart and heart-draining lymph nodes; type: in vivo, mouse; details: day 21
Protocol: Animal care, induction of myocarditis and treatments were performed as described above (Example 11) (n=10 mice per group). The mice were sacrificed on day 21, and hearts and mediastinal heart-draining lymph nodes were isolated.
Single cell suspensions were obtained from the organs by mechanic sectioning and enzymatic digestion, and the cells were stained with fluorescently-conjugated antibodies for analysis by flow cytometry. After euthanization, the mice were perfused intra-cardially with 20 ml ice-cold PBS, hearts and mediastinal lymph nodes were harvested and placed in PBS on ice. Hearts were cut in small pieces for 2 min while placed in digestion mixture containing 450 U/ml Collagenase I-S (Sigma-Aldrich, C0130), 125 U/ml Collagenase XI (Sigma-Aldrich, C7657), 60 U/ml Hyaluronidase Type I-S(Sigma-Aldrich H3506), 60 U/ml DNAse I (Sigma-Aldrich, DN25), and 20 mM HEPES (Fischer Scientific, SH3023701) in PBS, and thereafter incubated for 1 h at 37° C. with gentle agitation. Enzymatically-digested tissues were passed through a 70 μm cell strainer and washed twice with PBS. Mediastinal lymph nodes were passed through a 70 μm cell strainer and washed twice with PBS before staining. Single cell suspensions were stained in PBS with Zombie Aqua live/dead (BioLegend, 423102) for 10 min at RT followed by extracellular staining in FC-buffer (PBS, 0.5% BSA and 20 mM EDTA) with fluorescently-conjugated antibodies for 20 min on ice. The following monoclonal antibodies were used: anti-CD3ε (clone 145-2C11), anti-CD4 (clone OKT4), anti-CD8 (clone RPA-T8), anti-CD11b (clone EP1345Y), anti-CD11c (clone N418), anti-CD19 (clone 6D5), anti-CD44 (clone IM7), anti-CD45.2 (clone 104), anti-CD49b (clone DX5) anti-CD62L (clone MEL-14), […], anti-CD69 (clone X54-5/7.1), anti-CD115 (clone AFS98), anti-Ly-6C (clone HK1.4), anti-Ly-6G (clone 1A8), anti-MerTK (clone DS5MMER), anti-MHCII (clone M5/114.15.2), anti-Siglec-F (clone E50-2440). Appropriate single stains were performed using AbC Total Antibody Compensation Bead kit (Thermo Fischer Scientific) or with cells for live/dead. Flow cytometry analysis was done using a Gallios Flow Cytometer (Beckman Coulter) and data was analyzed using the FlowJo software (Tree Star).

SMILES: COc1ncc(S(=O)(=O)Nc2cncc(Cl)c2O)cc1Br [ABR-238901, 5-bromo-N-(5-chloro-4-hydroxypyridin-3-yl)-6-methoxypyridine-3-sulfonamide]
- Number of Ly6Chi monocytes in the bone marrow ([1]; 2 days treatment post-MI): increased
- Numbers of proliferating BrdU+ Lin−Sca+Kit+CD150+CD48− hematopoietic stem cells ([1]; bone marrow, 24 h after BrdU): reduced
- Numbers of macrophages in the heart ([1]; day 2 post-MI): lower
- Numbers of monocytes in the bone marrow ([1]; day 2 post-MI): significantly higher
- Numbers of monocytes in the spleen ([1]; day 2 post-MI): did not have a significant effect
- Numbers of neutrophils in the spleen ([1]; day 2 post-MI): did not have a significant effect
- Neutrophil counts in the bone marrow ([1]; day 2 post-MI, vs MI control): highly increased
- Numbers of neutrophils in blood ([1]; day 2 post-MI, vs MI control): significantly lowered
- Numbers of neutrophils in myocardium ([1]; day 2 post-MI, vs MI control): significantly lowered
- Cardiac eosinophil infiltration, percent of live CD45+ leukocytes [2]: 7.5%
- Effector memory (CD44+CD62L−) CD4+ T cells in heart-draining lymph nodes, percent of live CD45+CD3+ T cells [2]: 15.9%
- Effector memory (CD44+CD62L−) CD8+ T cells in heart-draining lymph nodes, percent of live CD45+CD3+ T cells [2]: 23.3%
- Infiltration of cDCs in the heart, % of live CD45+ leukocytes [2]: 5.7%
- Total CD3+ T cells in heart-draining lymph nodes, % of live CD45+ leukocytes [2]: 59.5%
